Read-outs that look alike come from different tables or passages of the source.
Molecular target: T1, Kv1.5 channels from humans (Homo sapiens, UniProt P22460)
T1 construct: expressed in transfected cells; host or cells: Xenopus laevis oocytes injected with in vitro synthesized RNA
Experiment: Kv1.5 currents in Xenopus oocytes, 2-microelectrode voltage clamp
Type: cell-based
Details: human Kv1.5 expressed in Xenopus laevis oocytes, voltage jumps to 0 mV and 40 mV lasting 500 ms, room temperature, Hill equation
Experimental: Kv1.5 channels from humans were expressed in Xenopus oocytes. To this end, oocytes from Xenopus laevis were first isolated and defolliculated. RNA coding for Kv1.5 synthesized in vitro was then injected into these oocytes. After a Kv1.5 protein expression for 1-7 days, Kv1.5 currents were measured on the oocytes using the 2-microelectrode voltage clamp technique. The Kv1.5 channels were in this case as a rule activated using voltage jumps to 0 mV and 40 mV lasting 500 ms. The bath was rinsed using a solution of the following composition: NaCl 96 mM, KCl 2 mM, CaCl2 1.8 mM, MgCl2 1 mM, HEPES 5 mM (titrated with NaOH to pH 7.4). These experiments were carried out at room temperature. The following were employed for data acquisition and analysis: Gene clamp amplifier (Axon Instruments, Foster City, USA) and MacLab D/A converter and software (ADinstruments, Castle Hill, Australia). The substances according to the invention were tested by adding them to the bath solution in different concentrations. The effects of the substances were calculated as the percentage inhibition of the Kv1.5 control current which was obtained when no substance was added to the solution. The data were then extrapolated using the Hill equation in order to determine the inhibition concentrations IC50 for the respective substances.

T1 sequence (P22460 whole entry): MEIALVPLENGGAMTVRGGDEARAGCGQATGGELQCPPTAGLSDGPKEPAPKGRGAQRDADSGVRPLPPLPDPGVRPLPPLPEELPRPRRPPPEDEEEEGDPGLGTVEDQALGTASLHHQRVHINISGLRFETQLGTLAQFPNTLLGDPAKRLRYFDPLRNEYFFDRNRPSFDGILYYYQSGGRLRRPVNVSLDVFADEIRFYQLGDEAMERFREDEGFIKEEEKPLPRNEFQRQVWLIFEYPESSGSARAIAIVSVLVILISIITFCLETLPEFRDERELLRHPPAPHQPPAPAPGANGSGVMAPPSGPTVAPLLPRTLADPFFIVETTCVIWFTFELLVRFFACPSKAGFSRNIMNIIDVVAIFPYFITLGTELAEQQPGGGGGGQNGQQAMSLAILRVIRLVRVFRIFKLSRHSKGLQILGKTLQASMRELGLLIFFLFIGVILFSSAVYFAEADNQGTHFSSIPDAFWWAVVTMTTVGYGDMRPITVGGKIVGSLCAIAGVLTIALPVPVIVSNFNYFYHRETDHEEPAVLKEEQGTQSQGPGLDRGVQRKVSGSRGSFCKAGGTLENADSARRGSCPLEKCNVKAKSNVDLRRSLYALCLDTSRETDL

Row | SMILES | IC50 (read-out: IC50) [µM] | IC50
1 | CC(C)(C(=O)NCc1ccccc1-c1cccnc1C(=O)NCC1CC1)c1ccc(Cl)cc1 [Example 61] | 1.7 | 
2 | CC(C)(C)OC(=O)NCc1ccccc1-c1ncccc1C(=O)NCc1ccc(F)cc1F [Example 6] | < 100 | 
3 | CC(C)CCNC(=O)c1ccccc1-c1ccncc1CNC(=O)OC(C)(C)C [Example 9] | < 100 | 
4 | COc1ccc(CC(=O)NCc2ccccc2-c2cccnc2C(=O)NCCc2ccccn2)cc1 [Example 36] | < 100 | 
5 | C[C@H](CC(=O)NCc1ccccc1-c1cccnc1C(=O)NCc1cccnc1)c1ccccc1 [Example 46] | 2.7 | 
6 | COc1ccc(CCC(=O)NCc2ccccc2-c2cccnc2C(=O)Nc2ccc(OC)cc2)cc1 [Example 44] | 6.7 | 
7 | COc1ccc(CC(=O)NCc2ccccc2-c2ncccc2C(=O)NCc2ccc(F)cc2F)cc1 [Example 51] | < 100 | 
8 | O=C(Cc1ccc(OC(F)(F)F)cc1)NCc1cnccc1-c1ccccc1C(=O)NCCc1cccnc1 [Example 56] | 6.1 | 
9 | CCOc1ccc(C(=O)NCc2ccccc2-c2cccnc2C(=O)Nc2ccc(OC)cc2)cc1 [Example 43] | < 100 | 
10 | CC(C)CCNC(=O)c1cccnc1-c1ccccc1CNC(=O)OC(C)(C)C [Example 5] | < 100 | 
11 | C[C@H](OC(=O)NCc1cnccc1-c1ccccc1C(=O)NCC1CC1)c1ccccc1 [Example 33] | 1.7 | 
12 | CC(C)CCNC(=O)c1cccnc1-c1ccccc1CNC(=O)OCc1ccccc1 [Example 28] | 9 | 
13 | COc1ccc(CC(=O)NCc2ccccc2-c2nccnc2C(=O)NCCc2ccccn2)cc1 [Example 53] |  | inactive
14 | O=C(CCc1cccc(OC(F)(F)F)c1)NCc1ccccc1-c1cccnc1C(=O)NCCc1cccnc1 [Example 60] | 3.1 | 
15 | COc1ccc(CCC(=O)NCc2ccccc2-c2cccnc2C(=O)NCCc2ccccn2)cc1 [Example 38] | 5.6 | 
16 | O=C(CCc1cccc(OC(F)(F)F)c1)NCc1ccccc1-c1cccnc1C(=O)NCCc1ccccn1 [Example 63] | 1.8 | 
17 | C[C@H](CC(=O)NCc1ccccc1-c1cccnc1C(=O)NCCc1ccccn1)c1ccccc1 [Example 49] | 0.9 | 
18 | CC(C)C[C@H](NC(=O)c1nccnc1-c1ccccc1CNC(=O)O[C@@H](C)c1ccccc1)C(N)=O [Example 31] | < 100 | 
19 | CC(C)(C(=O)NCc1ccccc1-c1cccnc1C(=O)NCCc1ccccn1)c1ccc(Cl)cc1 [Example 64] | 0.9 | 
20 | CC(C)C[C@H](NC(=O)c1ncccc1-c1ccccc1CNC(=O)O[C@@H](C)c1ccccc1)C(N)=O [Example 20] | 1.2 | 
21 | CC(C)C[C@H](NC(=O)c1nccnc1-c1ccccc1CNC(=O)OC(C)(C)C)C(N)=O [Example 11] |  | inactive
22 | CC(C)CCNC(=O)c1ccncc1-c1ccccc1CNC(=O)OC(C)(C)C [Example 3] | < 100 | 
23 | O=C(NCc1ccccc1-c1ncccc1C(=O)NCc1ccc(F)cc1F)OCc1ccccc1 [Example 29] | 7.6 | 
24 | O=C(CCc1cccc(OC(F)(F)F)c1)NCc1ccccc1-c1cccnc1C(=O)NCC1CC1 [Example 62] | 1.8 | 
25 | COc1ccc(NC(=O)c2nccnc2-c2ccccc2CNC(=O)OC(C)(C)C)cc1 [Example 12] | < 100 | 

Row | SMILES | IC50 (read-out: IC50) [µM] | IC50
26 | CC(C)(C)OC(=O)NCc1ccccc1-c1nccnc1C(=O)NCc1ccc(F)cc1F [Example 8] | < 100 | 
27 | C[C@H](OC(=O)NCc1ccccc1-c1cccnc1C(=O)NCCc1cccnc1)c1ccccc1 [Example 58] | 0.7 | 
28 | CC(C)CCNC(=O)c1ccncc1-c1ccccc1CNC(=O)OCc1ccccc1 [Example 26] | < 100 | 
29 | CC(C)CCNC(=O)c1ncccc1-c1ccccc1CNC(=O)OCc1ccccc1 [Example 18, Benzyl {2-[2-(3-methylbutylcarbamoyl)pyridin-3-yl]benzyl}carbamate] | 2.6 | 
30 | O=C(Cc1ccc(OC(F)(F)F)cc1)NCc1cnccc1-c1ccccc1C(=O)NCC1CC1 [Example 55] | 3.8 | 
31 | COc1ccc(NC(=O)c2ncccc2-c2ccccc2CNC(=O)O[C@@H](C)c2ccccc2)cc1 [Example 21] | 2 | 
32 | COc1ccc(CCC(=O)NCc2ccccc2-c2cccnc2C(=O)N[C@@H](CC(C)C)C(N)=O)cc1 [Example 41] | < 100 | 
33 | CC(CC(=O)NCc1cnccc1-c1ccccc1C(=O)NCC1CC1)c1ccc(F)cc1 (centres unmarked) [Example 54] | < 100 | 
34 | CC(CC(=O)NCc1ccccc1-c1cccnc1C(=O)NCC1CC1)c1ccc(F)cc1 (centres unmarked) [Example 47] | 3.1 | 
35 | CC(C)(C)OC(=O)NCc1ccccc1-c1cnccc1C(=O)NCc1ccc(F)cc1F [Example 4] | < 100 | 
36 | C[C@@H](O)CNC(=O)c1ncccc1-c1ccccc1CNC(=O)CCc1cccc(OC(F)(F)F)c1 [Example 66] | < 100 | 
37 | CCOc1ccc(C(=O)NCc2ccccc2-c2cccnc2C(=O)NCCc2ccccn2)cc1 [Example 37] | < 100 | 
38 | COc1ccc(CC(=O)NCc2ccccc2-c2cccnc2C(=O)Nc2ccc(OC)cc2)cc1 [Example 42] | < 100 | 
39 | CC(C)CCNC(=O)c1nccnc1-c1ccccc1CNC(=O)OC(C)(C)C [Example 7] | < 100 | 
40 | C[C@H](CC(=O)NCc1ccccc1-c1cccnc1C(=O)NCC1CC1)c1ccccc1 [Example 35, 3-{2-(R)-[(3-Phenylbutyrylamino)methyl]phenyl}pyridine-2-carboxylate cyclopropylmethylamide] | 0.4 | 
41 | COc1ccc(CC(=O)NCc2ccccc2-c2cccnc2C(=O)N[C@@H](CC(C)C)C(N)=O)cc1 [Example 39] | < 100 | 
42 | C[C@H](OC(=O)NCc1ccccc1-c1cccnc1C(=O)NCCc1ccccn1)c1ccccc1 [Example 19] | 0.6 | 
43 | C[C@H](OC(=O)NCc1ccccc1-c1cccnc1C(=O)NCC1CC1)c1ccccc1 [Example 23] | 0.4 | 
44 | C[C@H](OC(=O)NCc1cnccc1-c1ccccc1C(=O)NCCc1cccnc1)c1ccccc1 [Example 34] | 4.7 | 
45 | CC(CC(=O)NCc1ccccc1-c1cccnc1C(=O)NCCc1cccnc1)c1ccc(F)cc1 (centres unmarked) [Example 59] | 3.2 | 
46 | C[C@@H](O)CNC(=O)c1ncccc1-c1ccccc1CNC(=O)C(C)(C)c1ccc(Cl)cc1 [Example 65] | < 100 | 
47 | CC(CC(=O)NCc1ccccc1-c1cccnc1C(=O)NCCc1ccccn1)c1ccc(F)cc1 (centres unmarked) [Example 45] | 0.5 | 
48 | CCOc1ccc(C(=O)NCc2ccccc2-c2cccnc2C(=O)N[C@@H](CC(C)C)C(N)=O)cc1 [Example 40] | < 100 | 
49 | C[C@H](CC(=O)NCc1ccccc1-c1cccnc1C(=O)NC[C@@H](C)O)c1ccccc1 [Example 67] | < 100 | 
50 | Cc1onc(-c2ccccc2)c1C(=O)NCc1ccccc1-c1cccnc1C(=O)NCC1CC1 [Example 48] | 2.4 | 

Reference: patent publication US6794377B2, “Ortho, ortho-substituted nitrogen-containing bisaryl compounds, processes for their preparation, their use as medicaments, and pharmaceutical preparation comprising them” (Aventis Pharma Deutschland GmbH, priority 2000, dated 2004)
